# Assay results published in patent publication US20110028463A1, “AMIDE COMPOUNDS” (Astellas Pharma Inc., priority 2007, published 2011).
# Target: T1, rat EP4 receptor (Rattus norvegicus, UniProt P43114)
# T1 construct: expressed in transfected cells; host or cells: HEK293
# Assay: Evaluation test on rat EP4 receptor affinity ([3H]PGE2 binding assay)
# Settings: [3H]PGE2 0.3 nM; membrane fraction of HEK293 cells expressing rat EP4; room temperature, 1 hour
# Method: Evaluation Test on Rat EP4 Receptor Affinity
# Cell Culture and Transfection
# Using a 10 cm collagen-coated dish (Asahi Glass), HEK293 cells were cultured in a D-MEM culture medium, the culture medium was removed at a confluence (90 to 100% density state) and washed with a phosphate-buffered saline (PBS), and then the cells were detached with N,N,N′,N′-tetrakis(carboxymethyl)ethylenediamine (EDTA). The number of the cells were counted and seeded on a 15 cm collagen-coated dish to a confluence of 70%. The next day, to an Opti-MEM culture medium at 1.2 mL/dish was added Lipofectamine 2000 (Invitrogen) at 60 μL/dish, followed by being left to stand at room temperature for 5 minutes. A plasmid in which a rat EP4 (sequence number 1) had been inserted into a TA cloning site of pcDNA3.1-V5-His-topo was added thereto at 15 μg/dish. After leaving it to stand at room temperature for 30 minutes, the resultant was added to the dish and cultured for 20 to 24 hours. The cell culture was carried out in a CO2 incubator (37° C., 5% CO2).
# Preparation of Membrane Fraction
# The culture medium was removed by suction, 10 mL of cooled PBS was added thereto per 15 cm dish, and the cells were scraped using a cell scraper (Sumitomo Bakelite). After washing with cooled PBS (1,200 rpm, 4° C., 5 min), and then suspended in 6 mL of cooled 20 mM Tris-HCl (pH 7.4; Nakalai Tesque Inc., including 5 mM EDTA (Nakalai Tesque Inc.) per dish and homogenized using a Polytron, the homogenate was centrifuged (26,000 rpm, 20 min, 4° C.). The obtained precipitate was resuspended in cooled 20 mM Tris-HCl and homogenized again using a Polytron, and the homogenate was centrifuged (26,000 rpm, 20 min, 4° C.). The obtained precipitate was resuspended in 50 mM HEPES (pH 7.5; Dojindo Laboratories) to 1 mL per dish, homogenized using a Polytron, and freeze-stored at −80° C. as a membrane fraction. At this time, a part thereof was used for the measurement of the protein concentration. Measurement of the protein concentration was carried out using a Bio-Rad Protein assay kit (Bio-Rad Laboratories) in accordance with the appended standard Protocol in duplicate.
# [^3H] PGE2 μL (final concentration 0.3 nM; Perkin Elmer), 100 μL (20 μg/well) of a membrane fraction prepared from the rat EP4 expression cell and 50 μL of a test compound were mixed in a 96-well microplate (Sumitomo Bakelite), incubated at room temperature for 1 hour, filtered by suction on a UniFilter-96 GF/B (Perkin Elmer) using a FilterMate Harvester (Perkin Elmer), and then washed three times with 300 μL/well of a cooled assay buffer. Dilution of [^3H]PGE2 and the membrane fraction was carried out using an assay buffer (50 mM HEPES, 10 mM MgCl2), and dilution of the test compound and the unlabeled PGE2 was carried out using DMSO and the assay buffer. Further, in the case a human serum albumin (HSA) is added, dilution was carried out using an assay buffer containing 4% HSA (final concentration 1%; Sigma). The UniFilter-96 GF/B was treated by preliminarily washing twice with 200 μL/well of a cooled assay buffer. The UniFilter-96 GF/B after filtration was dried in a dryer overnight, 50 μL/well of MicroScint20 (Perkin Elmer) was added thereto, and then the radioactivity was measured using a TopCount (Perkin Elmer). For measurement of the non-specific binding, an unlabeled PGE2 (final concentration 1 μM; Cayman) was added. All of the measurements were carried out in duplicate, and the specific binding amount was determined by subtracting the non-specific binding amount from the total binding amount.
# According to Test method as above, the rat EP4 receptor affinity (Ki) of the compound of the formula (I) was measured. Ex represents Example Compound number.
# T1 sequence (P43114 whole entry): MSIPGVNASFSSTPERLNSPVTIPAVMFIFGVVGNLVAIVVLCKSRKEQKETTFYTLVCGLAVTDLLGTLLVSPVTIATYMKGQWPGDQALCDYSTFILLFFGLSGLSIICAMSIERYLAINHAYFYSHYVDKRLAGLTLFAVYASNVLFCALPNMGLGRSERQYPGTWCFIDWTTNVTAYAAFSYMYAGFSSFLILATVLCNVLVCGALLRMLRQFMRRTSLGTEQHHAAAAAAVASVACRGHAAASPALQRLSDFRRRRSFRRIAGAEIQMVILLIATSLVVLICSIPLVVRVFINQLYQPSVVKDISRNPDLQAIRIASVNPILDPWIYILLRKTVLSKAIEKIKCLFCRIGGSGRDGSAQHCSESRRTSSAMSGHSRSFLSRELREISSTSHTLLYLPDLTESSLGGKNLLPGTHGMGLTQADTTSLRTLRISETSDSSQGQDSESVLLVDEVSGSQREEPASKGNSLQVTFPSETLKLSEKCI
row,Ki [nM],SMILES
1,7.5,"O=C(O)c1ccc2c(ccn2NC(=O)c2ccccc2Cc2ccc(Cl)cc2)c1 [Example 4, 1-{[2-(4-chlorobenzyl)benzoyl]amino}-1H-indole-5-carboxylic acid]"
2,16,C[C@H](NC(=O)c1sccc1N(C)Cc1ccc(Cl)cc1)c1ccc(C(=O)O)cc1 [Example 7]
3,0.8,CN(NC(=O)c1cccc2ccn(Cc3ccc(Cl)cc3)c12)c1ccc(C(=O)O)cc1 [Example 8]
4,3.5,C[C@H](NC(=O)c1cccc2ccn(Cc3ccc(Cl)cc3)c12)c1ccc(-c2noc(=O)[nH]2)cc1 [Example 15]
5,0.51,C[C@H](NC(=O)c1cc(Cl)cc2ccn(Cc3ccc(Cl)cc3)c12)c1ccc(C(=O)O)cc1 [Example 21]
6,0.79,C[C@H](NC(=O)c1cccc2c1N(Cc1ccc(Cl)cc1)CC2)c1ccc(C(=O)O)cc1 [Example 22]
7,0.83,CN(NC(=O)c1cc(Cl)cc2ccn(Cc3ccc(Cl)cc3)c12)c1ccc(C(=O)O)cc1 [Example 31]
8,9.9,C[C@H](NC(=O)c1cc2ccccc2n1Cc1ccc(Cl)cc1)c1ccc(C(=O)O)cc1 [Example 37]
9,37,C[C@H](NC(=O)c1cccn1Cc1ccc(Cl)cc1)c1ccc(C(=O)O)cc1 [Example 39]
10,11,C[C@H](NC(=O)c1cccc2nc(Nc3ccc(Cl)cc3)oc12)c1ccc(C(=O)O)cc1 [Example 46]
11,5.5,C[C@H](NC(=O)c1cccc2cnn(Cc3ccc(Cl)cc3)c12)c1ccc(C(=O)O)cc1 [Example 47]
12,15,C[C@H](NC(=O)c1ccccc1-n1ccc2cc(Cl)ccc21)c1ccc(C(=O)O)cc1 [Example 50]
13,1.6,C[C@H](NC(=O)c1cccc2ccn(Cc3ccc4ccccc4n3)c12)c1ccc(C(=O)O)cc1 [Example 57]
14,12,CC(NC(=O)c1cccc2ccn(Cc3ccc(Cl)cc3)c12)[C@H]1CC[C@H](C(=O)O)CC1 (stereo partly shown) [Example 61]
15,12,O=C(NCC1CCC(C(=O)O)CC1)c1cccc2ccn(Cc3ccc(Cl)cc3)c12 (stereo not shown) [Example 110]
16,2.6,O=C(O)c1ccc(CNC(=O)c2cccc3ccn(Cc4ccc(Cl)cc4)c23)cc1 [Example 111]
